Measurements published in US10604526B2, “Chemokine receptor modulators and uses thereof” (RAPT THERAPEUTICS, INC., priority 2016, dated 2020).

Molecular target: T1, hCCR4 (Homo sapiens, UniProt P51679)
T1 sequence (P51679 1-360): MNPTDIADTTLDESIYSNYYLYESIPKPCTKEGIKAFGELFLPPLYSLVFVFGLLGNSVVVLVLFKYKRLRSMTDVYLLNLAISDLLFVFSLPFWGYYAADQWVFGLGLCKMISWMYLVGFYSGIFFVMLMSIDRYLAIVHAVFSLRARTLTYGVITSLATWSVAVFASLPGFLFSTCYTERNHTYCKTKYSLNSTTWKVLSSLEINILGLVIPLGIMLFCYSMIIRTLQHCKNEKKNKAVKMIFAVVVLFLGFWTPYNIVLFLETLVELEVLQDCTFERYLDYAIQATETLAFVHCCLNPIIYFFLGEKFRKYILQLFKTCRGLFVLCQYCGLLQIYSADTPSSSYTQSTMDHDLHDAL
Test: Calcium flux assay
Assay type: cell-based
Conditions: Chem5-hCCR4 cells, CCL22 at EC80 of 1.5 nM, FLIPR Calcium 6 dye; read-out: Potency (IC50)
Protocol: Calcium Flux Assay. Compounds were evaluated in a calcium flux assay substantially performed as follows. Chem5-hCCR4 cells (EMD Millipore, Hayward, Calif.; HTS009C) were cultured under standard conditions and frozen in aliquots of 10×10^6 cells/mL. The day prior to compound testing, a vial was rapidly thawed and pipetted into 20 mL media (DMEM+10% FBS+1% Pen-Strep+1% L-glutamine). Cells were harvested by centrifugation and re-suspended in fresh culture medium. 25 μL of cell suspension was seeded into 384-well plates (Corning, Tewksbury, Mass.; CellBind with black wall/clear bottom). The plates were centrifuged at 300 g for 10 seconds and incubated overnight at 37° C. and 5% CO2. The day of compound testing, media was removed from the plates and 25 μL serum free media was added to each well. Plates were returned to the incubator for 2 h. 25 μL assay buffer (Hank's balanced salt solution+20 mM HEPES pH 7.4) containing FLIPR Calcium 6 dye (Molecular Devices, Sunnyvale, Calif.; # R8191) and probenecid (2.5 mM) was added to each well and incubated at 37° C. and 5% CO2 for 2 h. Compounds in DMSO were added to the plates using an HP D300e digital dispenser, and all wells were normalized to contain 0.25 μL (0.5%) DMSO. Plates were incubated for 1 hour at 37° C. and 5% CO2. CCL22 (Peprotech; Rockyhill, N.J.) was diluted in assay buffer containing 0.1% BSA to 7.5 nM (corresponding to 5×EC80 of 1.5 nM).
Assay plates and working solution of CCL22 were transferred to the FlexStation plate reader (Molecular Devices) at 37° C. for 5 min of equilibration. Fluorescence recordings at 485 excitation/525 emission were performed at 2.5 second intervals. At t=16 seconds, 12.5 μL of CCL22 solution was added to each well and reads continued for 30 seconds at 2.5 second intervals. The minimum fluorescence (Fmin) was calculated by averaging the reads prior to ligand addition and the change in fluorescence (ΔF) was calculated by subtracting the Fmin from the average of the reads following ligand addition. The response ΔF/Fmin was plotted as a function of the compound concentration and the IC50 values were determined by non-linear regression analysis using a 4-parameter fit in either PRISM software (GraphPad; La Jolla, Calif.) or Dotmatics Browser.

Compound | IC50 [nM]
C[C@H](O)CN1CCC[C@H](C2CN(c3cnc4c(C(F)(F)F)nn([C@H](C)c5ccc(Cl)cc5Cl)c4n3)C2)C1 [Example 104, (S)-1-((R)-3-(1-(1-((R)-1-(2,4-dichlorophenyl)ethyl)-3-(trifluoromethyl)-1H-pyrazolo[3,4-b]pyrazin-6-yl)azetidin-3-yl)piperidin-1-yl)propan-2-ol] | < 100
C[C@H](c1ccc(Cl)cc1Cl)n1nc(C#N)c2ncc(N3CC(C4CCCN(CCO)C4)C3)nc21 (single isomer, unassigned) [Example 35] | < 100
CC(O)CN1CCC[C@@H](C2CN(c3cnc4c(C#N)nn([C@H](C)c5ccc(Cl)cc5Cl)c4n3)C2)C1 (single isomer, unassigned) [Example 31] | < 100
CC(=O)NCCN1CCC[C@H](C2CN(c3cnc4c(C(F)(F)F)nn([C@H](C)c5ccc(Cl)cc5Cl)c4n3)C2)C1 (single isomer, unassigned) [Example 54] | < 100
CC(=O)NCCN1CCCC(C2CN(c3cnc4c(C(F)(F)F)nn([C@H](C)c5ccc(Cl)cc5Cl)c4n3)C2)C1 (single isomer, unassigned) [Example 87] | < 100
COC(=O)NCCN1CCC[C@H](C2CN(c3cnc4c(C)nn([C@H](C)c5ccc(Cl)cc5Cl)c4n3)C2)C1 (single isomer, unassigned) [Example 84] | < 100
CC(C)C(=O)NCCN1CCC[C@H](C2CN(c3cnc4c(C(F)(F)F)nn([C@H](C)c5ccc(Cl)cc5Cl)c4n3)C2)C1 (single isomer, unassigned) [Example 52] | < 100
C[C@H](c1ccc(Cl)cc1Cl)n1nc(C#N)c2ncc(N3CC(C4CCCN(CCS(C)(=O)=O)C4)C3)nc21 (mixture of isomers) [Example 23, 1-((R)-1-(2,4-Dichlorophenyl)ethyl)-6-(3-((S)-1-(2-(methylsulfonyl)ethyl)piperidin-3-yl)azetidin-1-yl)-1H-pyrazolo[3,4-b]pyrazine-3-carbonitrile and 1-((R)-1-(2,4-dichlorophenyl)ethyl)-6-(3-((R)-1-(2-(methylsulfonyl)ethyl)piperidin-3-yl)azetidin-1-yl)-1H-pyrazolo[3,4-b]pyrazine-3-carbonitrile] | < 100
C[C@H](c1ccc(Cl)cc1Cl)n1nc(C#N)c2ncc(N3CC(C4CCCN(Cc5cc[nH]n5)C4)C3)nc21 (mixture of isomers) [Example 59, 6-(3-((S)-1-((1H-pyrazol-3-yl)methyl)piperidin-3-yl)azetidin-1-yl)-1-((R)-1-(2,4-dichlorophenyl)ethyl)-1H-pyrazolo[3,4-b]pyrazine-3-carbonitrile and 6-(3-((R)-1-((1H-pyrazol-3-yl)methyl)piperidin-3-yl)azetidin-1-yl)-1-((R)-1-(2,4-dichlorophenyl)ethyl)-1H-pyrazolo[3,4-b]pyrazine-3-carbonitrile] | < 100
Cc1nn([C@H](C)c2ccc(Cl)cc2Cl)c2nc(N3CC([C@@H]4CCCN(CCNS(=O)(=O)C(C)C)C4)C3)cnc12 (single isomer, unassigned) [Example 96] | 100 to 500
CC(O)CN1CCC[C@@H](C2CN(c3cnc4c(C#N)nn([C@H](C)c5ccc(Cl)cc5Cl)c4n3)C2)C1 (single isomer, unassigned) [Example 30] | < 100
1-((R)-1-(2,4-Dichlorophenyl)ethyl)-6-(3-((S)-1-(2-hydroxyethyl)piperidin-3-yl)azetidin-1-yl)-1H-pyrazolo[3,4-b]pyrazine-3-carbonitrile and 1-((S)-1-(2,4-dichlorophenyl)ethyl)-6-(3-((S)-1-(2-hydroxyethyl)piperidin-3-yl)azetidin-1-yl)-1H-pyrazolo[3,4-b]pyrazine-3-carbonitrile [Example 34] | < 100
CC(C)C(=O)NCCN1CCC[C@@H](C2CN(c3cnc4c(C(F)(F)F)nn([C@H](C)c5ccc(Cl)cc5Cl)c4n3)C2)C1 (single isomer, unassigned) [Example 88] | 100 to 500
C[C@H](c1ccc(Cl)cc1Cl)n1nc(C(F)(F)F)c2ncc(N3CC([C@@H]4CCCN(CCCS(C)(=O)=O)C4)C3)nc21 (single isomer, unassigned) [Example 115] | 100 to 500
Cc1nn([C@H](C)c2ccc(Cl)cc2Cl)c2nc(N3CC([C@H]4CCCN(CCCO)C4)C3)cnc12 (single isomer, unassigned) [Example 14] | < 100
Cc1nn([C@H](C)c2ccc(Cl)cc2Cl)c2nc(N3CC([C@@H]4CCCN(CCCC(=O)O)C4)C3)cnc12 (single isomer, unassigned) [Example 11] | 100 to 500
C[C@H](c1ccc(Cl)cc1Cl)n1nc(C#N)c2ncc(N3CC([C@@H]4CCCN(CCCC(=O)O)C4)C3)nc21 (single isomer, unassigned) [Example 19] | < 100
C[C@H](c1ccc(Cl)cc1Cl)n1nc(C(N)=O)c2ncc(N3CC([C@@H]4CCCN(CCCC(=O)O)C4)C3)nc21 (single isomer, unassigned) [Example 32] | 100 to 500
Cc1nn([C@H](C)c2ccc(Cl)cc2Cl)c2nc(N3CC(C4CCCN(CCNS(=O)(=O)C(C)C)C4)C3)cnc12 (single isomer, unassigned) [Example 97] | < 100
CC(=O)NCCN1CCC[C@H](C2CN(c3cnc4c(C#N)nn([C@H](C)c5ccc(Cl)cc5Cl)c4n3)C2)C1 (single isomer, unassigned) [Example 92] | < 100
CC(c1ccc(Cl)cc1Cl)n1nc(C#N)c2ncc(N3CC([C@@H]4CCCN(CCO)C4)C3)nc21 (single isomer, unassigned) [Example 36] | < 100
C[C@H](c1ccc(Cl)cc1Cl)n1nc(C#N)c2ncc(N3CC(C4CCCN(C5CCS(=O)(=O)CC5)C4)C3)nc21 (mixture of isomers) [Example 61, 1-((R)-1-(2,4-dichlorophenyl)ethyl)-6-(3-((R)-1-(1,1-dioxidotetrahydro-2H-thiopyran-4-yl)piperidin-3-yl)azetidin-1-yl)-1H-pyrazolo[3,4-b]pyrazine-3-carbonitrile and 1-((R)-1-(2,4-dichlorophenyl)ethyl)-6-(3-((S)-1-(1,1-dioxidotetrahydro-2H-thiopyran-4-yl)piperidin-3-yl)azetidin-1-yl)-1H-pyrazolo[3,4-b]pyrazine-3-carbonitrile] | < 100
C[C@H](c1ccc(Cl)cc1F)n1nc(C#N)c2ncc(N3CC([C@H]4CCCN(CCO)C4)C3)nc21 [Example 55, 1-((R)-1-(4-chloro-2-fluorophenyl)ethyl)-6-(3-((R)-1-(2-hydroxyethyl)piperidin-3-yl)azetidin-1-yl)-1H-pyrazolo[3,4-b]pyrazine-3-carbonitrile] | < 100
C[C@H](c1ccc(Cl)cc1Cl)n1nc(C#N)c2ncc(N3CC([C@H]4CCCN(CC(C)(C)O)C4)C3)nc21 (single isomer, unassigned) [Example 71] | < 100
CC(=O)NCCN1CCC[C@@H](C2CN(c3cnc4c(C#N)nn([C@H](C)c5ccc(Cl)cc5Cl)c4n3)C2)C1 (single isomer, unassigned) [Example 93] | < 100
CC(=O)NCCN1CCC[C@H](C2CN(c3cnc4c(C)nn([C@H](C)c5ccc(Cl)cc5Cl)c4n3)C2)C1 (single isomer, unassigned) [Example 100] | < 100
